Assays:
[1] = molecular target: T1, AR-VP16 (Homo sapiens, UniProt P10275); test: AR-VP16 DNA Binding Assay, agonist mode (HepG2 cells); assay type: cell-based; details: Emax >20x DMSO control = agonist
T1 sequence (P10275 560-920 limits assumed): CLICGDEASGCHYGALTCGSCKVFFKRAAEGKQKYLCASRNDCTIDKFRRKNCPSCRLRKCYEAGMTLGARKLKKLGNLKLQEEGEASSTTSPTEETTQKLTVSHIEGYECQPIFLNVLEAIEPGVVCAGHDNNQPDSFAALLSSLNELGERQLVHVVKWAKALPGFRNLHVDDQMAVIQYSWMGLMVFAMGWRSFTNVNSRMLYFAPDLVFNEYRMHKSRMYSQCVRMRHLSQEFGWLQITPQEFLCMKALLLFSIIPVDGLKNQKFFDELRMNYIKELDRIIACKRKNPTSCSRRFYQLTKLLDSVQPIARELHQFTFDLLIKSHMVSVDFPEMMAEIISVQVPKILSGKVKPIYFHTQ

[2] = molecular target: T1, AR-VP16; test: AR-VP16 DNA Binding Assay, antagonist mode (HepG2 cells, 0.1 nM R1881); assay type: cell-based
How it was run: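 Transfected HepG2 cells expressing AR-VP16 received serially diluted compound in charcoal-stripped-serum RPMI the day after transfection, with 0.1 nM R1881 (final) added only for antagonist testing. After 48 h, cells were lysed for measurement.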

Compound | ARVP16 DNA Binding Assay (Agonist mode): Agonist? [1] | IC50 [2] [µM]
N#Cc1ncc(N2C(=O)C3(CCC3)N(c3ccc(OCCC4CCOCC4)c(F)c3)C2=S)cc1C(F)(F)F [Compound 180, 5-(5-(3-Fluoro-4-(2-(tetrahydro-2H-pyran-4-yl)ethoxy)phenyl)-8-oxo-6-thioxo-5,7-diazaspiro[3.4]octan-7-yl)-3-(trifluoromethyl)picolinonitrile] | Yes (Agonist defined as a compound whose Emax in the ARVP16 DNA Binding Assay (Agonist mode) is >20x DMSO control) | < 1
CN1CCN(CCOc2cc(N3C(=S)N(c4cnc(C#N)c(C(F)(F)F)c4)C(=O)C34CCC4)ccc2F)CC1 [Compound 166, 5-(5-(4-Fluoro-3-(2-(4-methylpiperazin-1-yl)ethoxy)phenyl)-8-oxo-6-thioxo-5,7-diazaspiro[3.4]octan-7-yl)-3-(trifluoromethyl)picolinonitrile] | No (Agonist defined as a compound whose Emax in the ARVP16 DNA Binding Assay (Agonist mode) is >20x DMSO control) | > 1
N#Cc1ncc(N2C(=O)C3(CCC3)N(c3ccc(CO)cc3)C2=S)cc1C(F)(F)F [Compound 69, 5-(5-(4-(Hydroxymethyl)phenyl)-8-oxo-6-thioxo-5,7-diazaspiro[3.4]octan-7-yl)-3-(trifluoromethyl)picolinonitrile] | No (Agonist defined as a compound whose Emax in the ARVP16 DNA Binding Assay (Agonist mode) is >20x DMSO control) | < 1
N#Cc1ncc(N2C(=O)C3(CCC3)N(c3ccc(F)c(C(=O)NCCCN4CCCC4)c3)C2=S)cc1C(F)(F)F [Compound 252, 5-(7-(6-Cyano-5-(trifluoromethyl)pyridin-3-yl)-8-oxo-6-thioxo-5,7-diazaspiro[3.4]octan-5-yl)-2-fluoro-N-(3-(pyrrolidin-1-yl)propyl)benzamide] | No (Agonist defined as a compound whose Emax in the ARVP16 DNA Binding Assay (Agonist mode) is >20x DMSO control) | < 1
N#Cc1ncc(N2C(=O)C3(CCC3)N(c3ccc(F)cc3)C2=S)cc1C(F)(F)F [Compound 28, 5-(5-(4-Fluorophenyl)-8-oxo-6-thioxo-5,7-diazaspiro[3.4]octan-7-yl)-3-(trifluoromethyl)picolinonitrile] | No (Agonist defined as a compound whose Emax in the ARVP16 DNA Binding Assay (Agonist mode) is >20x DMSO control) | < 1
N#Cc1ncc(N2C(=O)C3(CCC3)N(c3ccc(OCCCN4CCOCC4)c(F)c3)C2=S)cc1C(F)(F)F [Compound 150, 5-(5-(3-Fluoro-4-(3-morpholinopropoxy)phenyl)-8-oxo-6-thioxo-5,7-diazaspiro[3.4]octan-7-yl)-3-(trifluoromethyl)picolinonitrile] | Yes (Agonist defined as a compound whose Emax in the ARVP16 DNA Binding Assay (Agonist mode) is >20x DMSO control) | < 1
N#Cc1ncc(N2C(=O)C3(CCC3)N(c3ccc(OCCCSCCCC(F)(F)C(F)(F)F)c(F)c3)C2=S)cc1C(F)(F)F [Compound 153, 5-(5-(3-Fluoro-4-(3-((4,4,5,5,5-pentafluoropentyl)thio)propoxy)phenyl)-8-oxo-6-thioxo-5,7-diazaspiro[3.4]octan-7-yl)-3-(trifluoromethyl)picolinonitrile] | No (Agonist defined as a compound whose Emax in the ARVP16 DNA Binding Assay (Agonist mode) is >20x DMSO control) | < 1
Cc1cc(N2C(=O)C3(CCC3)N(c3ccc(C(=O)NCCCN4CCCC4)c(F)c3)C2=S)cnc1C#N [Compound 275, 4-(7-(6-Cyano-5-methylpyridin-3-yl)-8-oxo-6-thioxo-5,7-diazaspiro[3.4]octan-5-yl)-2-fluoro-N-(3-(pyrrolidin-1-yl)propyl)benzamide] | No (Agonist defined as a compound whose Emax in the ARVP16 DNA Binding Assay (Agonist mode) is >20x DMSO control) | > 1
N#Cc1ncc(N2C(=O)C3(CCC3)N(c3ccc(OC4CCN(C(N)=O)CC4)cc3)C2=S)cc1C(F)(F)F [Compound 222, 4-(4-(7-(6-Cyano-5-(trifluoromethyl)pyridin-3-yl)-8-oxo-6-thioxo-5,7-diazaspiro[3.4]octan-5-yl)phenoxy)piperidine-1-carboxamide] | Yes (Agonist defined as a compound whose Emax in the ARVP16 DNA Binding Assay (Agonist mode) is >20x DMSO control) | < 1
N#Cc1ncc(N2C(=O)C3(CCC3)N(c3ccc(C(=O)NCCCN4CCC(F)(F)C4)c(F)c3)C2=S)cc1C(F)(F)F [Compound 313, 4-(7-(6-Cyano-5-(trifluoromethyl)pyridin-3-yl)-8-oxo-6-thioxo-5,7-diazaspiro[3.4]octan-5-yl)-N-(3-(3,3-difluoropyrrolidin-1-yl)propyl)-2-fluorobenzamide] | No (Agonist defined as a compound whose Emax in the ARVP16 DNA Binding Assay (Agonist mode) is >20x DMSO control) | < 1
CNC(=O)c1ccc(N2C(=S)N(c3cnc(C#N)c(C)c3)C(=O)C23CCC3)cc1C [Compound 106, 4-(7-(6-Cyano-5-methylpyridin-3-yl)-8-oxo-6-thioxo-5,7-diazaspiro[3.4]octan-5-yl)-N,2-dimethylbenzamide] | No (Agonist defined as a compound whose Emax in the ARVP16 DNA Binding Assay (Agonist mode) is >20x DMSO control) | < 1
Cc1ccc(N2C(=S)N(c3cnc(-c4cccnc4)c(C(F)(F)F)c3)C(=O)C23CCC3)cc1 [Compound 61, 6-Thioxo-5-(p-tolyl)-7-(3-(trifluoromethyl)-[2,3′-bipyridin]-5-yl)-5,7-diazaspiro[3.4]octan-8-one] | No (Agonist defined as a compound whose Emax in the ARVP16 DNA Binding Assay (Agonist mode) is >20x DMSO control) | > 1
CCC(=O)N1CCC(Oc2ccc(N3C(=S)N(c4cnc(C#N)c(C(F)(F)F)c4)C(=O)C34CCC4)cc2)CC1 [Compound 212, 5-(8-Oxo-5-(4-((1-propionylpiperidin-4-yl)oxy)phenyl)-6-thioxo-5,7-diazaspiro[3.4]octan-7-yl)-3-(trifluoromethyl)picolinonitrile] | Yes (Agonist defined as a compound whose Emax in the ARVP16 DNA Binding Assay (Agonist mode) is >20x DMSO control) | < 1
Cc1ccccc1N1C(=S)N(c2cnc(C#N)c(C(F)(F)F)c2)C(=O)C12CCC2 [Compound 20, 5-(8-Oxo-6-thioxo-5-(o-tolyl)-5,7-diazaspiro[3.4]octan-7-yl)-3-(trifluoromethyl)picolinonitrile] | No (Agonist defined as a compound whose Emax in the ARVP16 DNA Binding Assay (Agonist mode) is >20x DMSO control) | < 1
N#Cc1ncc(N2C(=O)C3(CCC3)N(c3ccc(OCCc4ccc5ccccc5c4)c(F)c3)C2=S)cc1C(F)(F)F [Compound 141, 5-(5-(3-Fluoro-4-(2-(naphthalen-2-yl)ethoxy)phenyl)-8-oxo-6-thioxo-5,7-diazaspiro[3.4]octan-7-yl)-3-(trifluoromethyl)picolinonitrile] | Yes (Agonist defined as a compound whose Emax in the ARVP16 DNA Binding Assay (Agonist mode) is >20x DMSO control) | > 1
Cc1ccc(N2C(=S)N(c3cnc(C#N)c(C)c3)C(=O)C23CCC3)cc1 [Compound 31, 3-Methyl-5-(8-oxo-6-thioxo-5-(p-tolyl)-5,7-diazpiro[3.4]octan-7-yl)picolinonitrile] | No (Agonist defined as a compound whose Emax in the ARVP16 DNA Binding Assay (Agonist mode) is >20x DMSO control) | < 1
Cc1cc(N2C(=O)C3(CCC3)N(c3ccc(OC4CCN(C)CC4)c(F)c3)C2=S)cnc1C#N [Compound 192, 5-(5-(3-Fluoro-4-((1-methylpiperidin-4-yl)oxy)phenyl)-8-oxo-6-thioxo-5,7-diazaspiro[3.4]octan-7-yl)-3-methylpicolinonitrile] | No (Agonist defined as a compound whose Emax in the ARVP16 DNA Binding Assay (Agonist mode) is >20x DMSO control) | > 1
Cc1ccc(CNC(=O)c2ccc(N3C(=S)N(c4cnc(C#N)c(C(F)(F)F)c4)C(=O)C34CCC4)cc2F)o1 [Compound 291, 4-(7-(6-Cyano-5-(trifluoromethyl)pyridin-3-yl)-8-oxo-6-thioxo-5,7-diazaspiro[3.4]octan-5-yl)-2-fluoro-N-((5-methylfuran-2-yl)methyl)benzamide] | No (Agonist defined as a compound whose Emax in the ARVP16 DNA Binding Assay (Agonist mode) is >20x DMSO control) | < 1
CC(C)C(=O)N1CCC(Oc2ccc(N3C(=S)N(c4cnc(C#N)c(C(F)(F)F)c4)C(=O)C34CCC4)cc2)CC1 [Compound 213, 5-(5-(4-((1-isobutyrylpiperidin-4-yl)oxy)phenyl)-8-oxo-6-thioxo-5,7-diazaspiro[3.4]octan-7-yl)-3-(trifluoromethyl)picolinonitrile] | Yes (Agonist defined as a compound whose Emax in the ARVP16 DNA Binding Assay (Agonist mode) is >20x DMSO control) | < 1
N#Cc1ncc(N2C(=O)C3(CCC3)N(c3ccc(F)c(C(=O)NCCc4cccnc4)c3)C2=S)cc1C(F)(F)F [Compound 240, 5-(7-(6-Cyano-5-(trifluoromethyl)pyridin-3-yl)-8-oxo-6-thioxo-5,7-diazaspiro[3.4]octan-5-yl)-2-fluoro-N-(2-(pyridin-3-yl)ethyl)benzamide] | No (Agonist defined as a compound whose Emax in the ARVP16 DNA Binding Assay (Agonist mode) is >20x DMSO control) | > 1

From patent US9108944B2, “Androgen receptor modulators and uses thereof” (ARAGON PHARMACEUTICALS, INC., priority 2010, dated 2015)
